# Experimental data published in US8288441B2, “Compositions comprising a physiological coolant” (Givaudan Nederland Services B.V., priority 2007, dated 2012).
# System: forearm skin
# Assay: Perception of cooling after applying aqueous ethanol solutions to the forearms of volunteers
# Type: in vivo, human
# Source text: A simple aqueous ethanol solution (50:50) containing 1% by weight of lactoyl ethanolamide was applied to one forearm. The aqueous ethanol solution alone (control) was then applied to the other forearm at a similar dosage, and the perception of cooling from either arm noted. This was repeated on 10 volunteers in total.
# (§1) A simple aqueous ethanol solution (50:50) containing 0.2% by weight of L-menthol and 1% by weight of lactoyl ethanolamide was applied to one forearm at a concentration of 2 drops per 10 square centimetres of skin. The aqueous ethanol solution containing just 0.2% by weight L-menthol was then applied to the other forearm at the same dose, and the perception of cooling from either arm noted. This was repeated on 10 volunteers.
# as §1, with “and 0.5%” for “and 1%”, “containing” for “containing just”, “arm noted over 4 hours at 30 minute intervals.” for “arm noted.”, “on 12” for “on 10”
# as §1, with “containing 1%” for “containing 0.2%”, “of menthyl lactate” for “of L-menthol”, “containing 1%” for “containing just 0.2%”, “weight menthyl lactate” for “weight L-menthol”, “arm noted over 4 hours at 30 minute intervals.” for “arm noted.”, “on 12” for “on 10”
# as §1, with “1.0%” for “0.2%”, “menthone glyceryl ketal” for “L-menthol”, “0.5%” for “1%”, “1%” for “just 0.2%”, “noted over 4 hours at 1 hour intervals.” for “noted.”
# (§2) A simple aqueous ethanol solution (50:50) containing 0.75% by weight of menthyl glyceryl ether and 0.5% by weight of lactoyl ethanolamide was applied to one forearm at a concentration of 2 drops per 10 square centimetres of skin. An aqueous ethanol solution containing 1% by weight menthyl glyceryl ether was then applied to the other forearm at the same dose, and the perception of cooling from either arm noted over a 4 hour period. This was repeated on 12 volunteers.
# as §2, with “1%” for “0.75%”, “pyrrolidone carboxylate” for “glyceryl ether”, “dose” for “dose,”, “6” for “4”, “33” for “12”
# [1] = Example 7, 1% menthyl pyrrolidone carboxylate + 0.5% lactoyl ethanolamide vs 1% menthyl pyrrolidone carboxylate alone, 6 hour period, 33 volunteers
structure (smiles),measurement,setting,value
CC(C)[C@@H]1CC[C@@H](C)C[C@H]1O [L-menthol],period of time over which cooling was felt,"Example 3, 0.2% L-menthol with or without 0.5% lactoyl ethanolamide, noted over 4 hours at 30 minute intervals, 12 volunteers",about 2 hours
CC1CCC(C(C)C)C2(C1)OCC(CO)O2 (stereo not shown) [menthone glyceryl ketal],period of time over which cooling was felt,"Example 5, 1% menthone glyceryl ketal with or without 0.5% lactoyl ethanolamide, noted over 4 hours at 1 hour intervals, 10 volunteers",about 3 hours
CC1CCC(C(C)C)C(OC(=O)C(C)O)C1 (stereo not shown) [menthyl lactate],period of time over which cooling was felt,"Example 4, 1% menthyl lactate with or without 1% lactoyl ethanolamide, noted over 4 hours at 30 minute intervals, 12 volunteers",about 2 hours
"CC(O)C(=O)NCCO (stereo not shown) [lactoyl ethanolamide, N-lactoyl ethanolamide]",cooling perception versus placebo solution,"Example 1, 1% by weight lactoyl ethanolamide in aqueous ethanol (50:50) vs aqueous ethanol alone, other forearm, 10 volunteers",no difference in cooling perception
same,cooling perception versus coolant alone,"Example 2, 0.2% L-menthol + 1% lactoyl ethanolamide vs 0.2% L-menthol alone, 2 drops per 10 square centimetres, 10 volunteers",higher cooling perception
same,level of cooling versus coolant alone,[1],higher level of cooling
same,time for which the improved cooling perception was sustained,[1],at least 6 hours
